From patent publication US20130237444A1, “GBM MOLECULAR CONTEXTS ASSOCIATED WITH PATIENT SURVIVAL” (Translational Genomics Research Institute, priority 2012, published 2013)

How the values were obtained:
[1] = test system: Mesenchymal-mapped xenograft models; assay: Survival of drug-treated GBM mouse xenografts vs control, Mesenchymal-mapped; settings: for frequency of xenograft models with survival difference NS (statistically Not Significant) / frequency of xenograft models with significantly longer survival than control (treatment-sensitive) / frequency of xenograft models with significantly shorter survival than control (treatment-resistant): Mesenchymal subtype, total 4 xenografts; for frequency of xenograft models with survival difference NS (statistically Not Significant): Cox regression; for frequency of xenograft models with significantly longer survival than control (treatment-sensitive) / frequency of xenograft models with significantly shorter survival than control (treatment-resistant): Cox regression p-value threshold 0.05; for subtype-specific drug response (sensitivity or resistance): Mesenchymal-mapped xenograft models, survival analysis
Experimental: (§1) Forty GBM mouse xenografts were used. […] These xenografts were also mapped to the four molecular subtypes: proneural, neural, classical, and mesenchymal.
(§2) Characterizing drug responsiveness for GBM subtypes using the mapped xenografts: Out of 40 xenograft models, 21 models were treated with 4 different treatments and their survival rates were compared against control groups.

[2] = test system: Neural-mapped xenograft models; assay: Survival of drug-treated GBM mouse xenografts vs control, Neural-mapped; format: in vivo; settings: Neural subtype, total 3 xenografts; for frequency of xenograft models with survival difference NS (statistically Not Significant): Cox regression; for frequency of xenograft models with significantly longer survival than control (treatment-sensitive) / frequency of xenograft models with significantly shorter survival than control (treatment-resistant): Cox regression p-value threshold 0.05
Experimental: as §1, §2

[3] = test system: Classical-mapped xenograft models; assay: Survival of drug-treated GBM mouse xenografts vs control, Classical-mapped; settings: for frequency of xenograft models with survival difference NS (statistically Not Significant) / frequency of xenograft models with significantly longer survival than control (treatment-sensitive) / frequency of xenograft models with significantly shorter survival than control (treatment-resistant): Classical subtype, total 2 xenografts; for frequency of xenograft models with survival difference NS (statistically Not Significant): Cox regression; for frequency of xenograft models with significantly longer survival than control (treatment-sensitive) / frequency of xenograft models with significantly shorter survival than control (treatment-resistant): Cox regression p-value threshold 0.05
Experimental: as §1, §2

[4] = test system: Proneural-mapped xenografts; assay: Survival of drug-treated GBM mouse xenografts vs control, Proneural-mapped; format: in vivo; settings: Proneural subtype, total 2 xenografts; for frequency of xenograft models with survival difference NS (statistically Not Significant): Cox regression; for frequency of xenograft models with significantly longer survival than control (treatment-sensitive) / frequency of xenograft models with significantly shorter survival than control (treatment-resistant): Cox regression p-value threshold 0.05
Experimental: as §1, §2

Compound	frequency of xenograft models with survival difference NS (statistically Not Significant) [1]	frequency of xenograft models with significantly longer survival than control (treatment-sensitive) [1]	frequency of xenograft models with significantly shorter survival than control (treatment-resistant) [1]	subtype-specific drug response (sensitivity or resistance) [1]	frequency of xenograft models with survival difference NS (statistically Not Significant) [2]	frequency of xenograft models with significantly longer survival than control (treatment-sensitive) [2]	frequency of xenograft models with significantly shorter survival than control (treatment-resistant) [2]	frequency of xenograft models with survival difference NS (statistically Not Significant) [3]	frequency of xenograft models with significantly longer survival than control (treatment-sensitive) [3]	frequency of xenograft models with significantly shorter survival than control (treatment-resistant) [3]	frequency of xenograft models with survival difference NS (statistically Not Significant) [4]	frequency of xenograft models with significantly longer survival than control (treatment-sensitive) [4]	frequency of xenograft models with significantly shorter survival than control (treatment-resistant) [4]	subtype-specific drug response (sensitivity or resistance) ([3]; Classical-mapped xenograft models, survival analysis)
Cn1c(=O)n(-c2ccc(C(C)(C)C#N)cc2)c2c3cc(-c4cnc5ccccc5c4)ccc3ncc21 [BEZ235]	3	0	1	resistance	3	0	0	2	0	0	1	1	0	
CNC(=O)c1cc(Oc2ccc(NC(=O)Nc3ccc(Cl)c(C(F)(F)F)c3)cc2)ccn1 [Sorafenib, sorafenib]	1	1	2	resistance	3	0	0	1	0	1	1	1	0	resistance
Cn1nnc2c(C(N)=O)ncn2c1=O [TMZ, temozolomide]	2	2	0		2	1	0	1	1	0	1	1	0	
